According to ChEMBL document CHEMBL4765313, “Synthesis, in vitro evaluation and molecular docking of a new class of indolylpropyl benzamidopiperazines as dual AChE and SERT ligands for Alzheimer's disease” (Eur J Med Chem, 2020):
pIC50: −log10 of the molar value. Activity calls are given as the source filed them. No cut-off for these calls is given here.

Columns and labels:
Acetylcholinesterase = Acetylcholinesterase (Homo sapiens, UniProt P22303); assay: Inhibition of human plasma AChE using acetylthiocholine iodide as substrate preincubated for 15 mins followed by substrate addition and measured after 10 mins by Ellman's method; format: cell-free
Sequence of Acetylcholinesterase (P22303 whole entry): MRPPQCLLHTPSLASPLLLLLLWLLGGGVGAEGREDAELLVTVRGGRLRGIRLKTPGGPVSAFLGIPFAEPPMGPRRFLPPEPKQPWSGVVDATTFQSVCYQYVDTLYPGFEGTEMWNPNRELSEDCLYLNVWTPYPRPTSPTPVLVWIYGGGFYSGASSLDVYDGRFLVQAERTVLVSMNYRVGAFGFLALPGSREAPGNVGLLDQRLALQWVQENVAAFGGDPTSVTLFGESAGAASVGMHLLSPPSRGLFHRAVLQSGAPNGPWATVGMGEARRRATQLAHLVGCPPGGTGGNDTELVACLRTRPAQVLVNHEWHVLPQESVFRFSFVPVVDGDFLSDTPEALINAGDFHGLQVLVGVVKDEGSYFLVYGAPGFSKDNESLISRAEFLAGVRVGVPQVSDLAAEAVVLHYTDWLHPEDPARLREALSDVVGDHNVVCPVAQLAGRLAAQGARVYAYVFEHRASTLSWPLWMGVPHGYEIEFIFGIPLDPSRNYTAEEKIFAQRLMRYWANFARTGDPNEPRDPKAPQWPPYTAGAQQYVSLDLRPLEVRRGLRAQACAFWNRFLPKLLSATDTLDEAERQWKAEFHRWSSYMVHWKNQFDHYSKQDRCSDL

[1] = Solubility of compound at pH 7.4 at 1 to 100 uM; format: physicochemical; details: buffer, pH 7.4, 100 µM; dose 1-100 µM
[2] = target: Sodium-dependent serotonin transporter (Homo sapiens, UniProt P31645); assay: Displacement of [3H]paroxetine from human SERT expressed in human HEK293 cells incubated for 30 mins by liquid scintillation counting analysis; format: cell-based
Sequence of Sodium-dependent serotonin transporter (P31645 whole entry): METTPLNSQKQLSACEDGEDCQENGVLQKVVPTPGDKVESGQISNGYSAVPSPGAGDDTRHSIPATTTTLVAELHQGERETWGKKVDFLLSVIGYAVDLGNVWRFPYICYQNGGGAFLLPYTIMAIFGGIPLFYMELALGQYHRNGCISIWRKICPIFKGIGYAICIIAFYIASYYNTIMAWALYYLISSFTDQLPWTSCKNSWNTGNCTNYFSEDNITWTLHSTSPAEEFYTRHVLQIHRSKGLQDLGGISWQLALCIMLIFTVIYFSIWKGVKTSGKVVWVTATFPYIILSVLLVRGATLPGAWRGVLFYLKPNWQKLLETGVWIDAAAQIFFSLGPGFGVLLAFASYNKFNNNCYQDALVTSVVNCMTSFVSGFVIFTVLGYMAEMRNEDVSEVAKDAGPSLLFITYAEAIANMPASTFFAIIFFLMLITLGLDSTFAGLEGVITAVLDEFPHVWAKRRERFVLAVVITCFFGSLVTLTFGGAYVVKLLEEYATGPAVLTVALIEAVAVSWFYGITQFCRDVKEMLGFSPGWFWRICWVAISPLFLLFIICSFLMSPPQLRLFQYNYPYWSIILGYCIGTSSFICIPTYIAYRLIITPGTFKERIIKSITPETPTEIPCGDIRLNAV

SH-SY5Y = assay: Cytotoxicity against human SH-SY5Y cells assessed as reduction in cell viability incubated for 72 hrs by MTT assay; format: ADME, cell-based
HEK293 = assay: Cytotoxicity against human HEK293 cells assessed as reduction in cell viability incubated for 72 hrs by MTT assay; format: ADME, cell-based; details: HEK293, 72 h
[3] = Reduction of beta-Amyloid40 level in mouse N2a cells transfected with human APP695 at 10 uM incubated for 16 hrs by ELISA relative to control; format: functional
N2a [4] = assay: Effect on APP in mouse N2a cells transfected with human APP695 by Western blot analysis; format: functional, cell-based
N2a [5] = assay: Decrease in APP-C99 in mouse N2a cells transfected with human APP695 by Western blot analysis; format: functional, cell-based

SMILES	pIC50 (Acetylcholinesterase)	solubility [1]	pIC50 [2]	pIC50 (SH-SY5Y)	pIC50 (HEK293)	inhibition at 10 µM [3]	Activity (N2a [4])	inhibition (N2a [5])
O=C(CN1CCN(C(=O)c2ccc(F)cc2)CC1)N1CCN(CCCc2c[nH]c3ccc(F)cc23)CC1	5.47	Soluble	3.67	3.92	3.99	–	–	–
O=C(CN1CCN(C(=O)c2ccc(Br)cc2)CC1)N1CCN(CCCc2c[nH]c3ccccc23)CC1	4.45	Soluble	< 3.00	4.23	4.14	–	–	–
O=C(CN1CCN(C(=O)c2ccccc2)CC1)N1CCN(CCCc2c[nH]c3ccc(F)cc23)CC1	< 4.30	Soluble	3.49	3.84	3.83	–	–	–
COc1ccc(C(=O)N2CCN(CC(=O)N3CCN(CCCc4c[nH]c5ccc(F)cc45)CC3)CC2)cc1	4.84	Soluble	3.88	3.79	3.85	–	–	–
O=C(CN1CCN(C(=O)c2cccc(Br)c2)CC1)N1CCN(CCCc2c[nH]c3ccc(F)cc23)CC1	4.43	Soluble	3.74	4.15	4.39	–	–	–
O=C(CN1CCN(C(=O)c2ccc(Cl)cc2)CC1)N1CCN(CCCc2c[nH]c3ccccc23)CC1	4.45	Soluble	< 3.00	3.86	4.01	–	–	–
Cc1ccc(C(=O)N2CCN(CC(=O)N3CCN(CCCc4c[nH]c5ccc(F)cc45)CC3)CC2)cc1	5.44	Soluble	3.91	3.92	3.85	–	–	–
O=C(CN1CCN(C(=O)c2cccc(Cl)c2)CC1)N1CCN(CCCc2c[nH]c3ccc(F)cc23)CC1	4.74	Soluble	3.83	4.22	4.18	–	–	–
COc1cccc(C(=O)N2CCN(CC(=O)N3CCN(CCCc4c[nH]c5ccccc45)CC3)CC2)c1	< 4.30	Soluble	< 3.00	< 3.70	3.84	–	–	–
COc1ccc2[nH]cc(CCCN3CCN(C(=O)CN4CCN(C(=O)c5cccc(Cl)c5)CC4)CC3)c2c1	< 4.30	Soluble	< 3.00	< 3.70	3.85	–	–	–
O=C(CN1CCN(C(=O)c2ccc(F)cc2)CC1)N1CCN(CCCc2c[nH]c3ccccc23)CC1	4.40	Soluble	< 3.00	3.72	3.85	–	–	–
O=C(CN1CCN(C(=O)c2cccc(Cl)c2)CC1)N1CCN(CCCc2c[nH]c3ccccc23)CC1	4.49	Soluble	< 3.00	3.92	4.00	–	–	–
Cc1ccc(C(=O)N2CCN(CC(=O)N3CCN(CCCc4c[nH]c5ccccc45)CC3)CC2)cc1	4.53	Soluble	< 3.00	< 3.70	3.80	–	–	–
COc1ccc2[nH]cc(CCCN3CCN(C(=O)CN4CCN(C(=O)c5ccccc5)CC4)CC3)c2c1	< 4.30	Soluble	< 3.00	< 3.70	< 3.70	37%	–	–
COc1ccc2[nH]cc(CCCN3CCN(C(=O)CN4CCN(C(=O)c5cccc(Br)c5)CC4)CC3)c2c1	< 4.30	Soluble	< 3.00	3.98	4.24	–	–	–
O=C(CN1CCN(C(=O)c2ccccc2Br)CC1)N1CCN(CCCc2c[nH]c3ccc(F)cc23)CC1	4.48	Soluble	5.72	4.10	4.11	–	–	–
O=C(CN1CCN(C(=O)c2cccc(F)c2)CC1)N1CCN(CCCc2c[nH]c3ccc(F)cc23)CC1	< 4.30	Soluble	4.16	3.77	4.08	–	–	–
COc1cccc(C(=O)N2CCN(CC(=O)N3CCN(CCCc4c[nH]c5ccc(F)cc45)CC3)CC2)c1	4.71	Soluble	4.08	4.10	4.06	–	–	–

SMILES	pIC50 (Acetylcholinesterase)	solubility [1]	pIC50 [2]	pIC50 (SH-SY5Y)	pIC50 (HEK293)	inhibition at 10 µM [3]	Activity (N2a [4])	inhibition (N2a [5])
COc1ccc2[nH]cc(CCCN3CCN(C(=O)CN4CCN(C(=O)c5ccccc5Br)CC4)CC3)c2c1	< 4.30	Soluble	< 3.00	3.95	3.79	–	–	–
O=C(CN1CCN(C(=O)c2cccc(F)c2)CC1)N1CCN(CCCc2c[nH]c3ccccc23)CC1	< 4.30	Soluble	< 3.00	3.78	3.74	–	–	–
COc1cc2c(cc1OC)C(=O)C(CC1CCN(Cc3ccccc3)CC1)C2 (stereo not drawn) [DONEPEZIL]	–	–	< 3.00	–	–	–	–	–
O=C(CN1CCN(C(=O)c2ccc(Cl)cc2)CC1)N1CCN(CCCc2c[nH]c3ccc(F)cc23)CC1	4.65	Soluble	3.26	3.90	4.35	–	–	–
O=C(CN1CCN(C(=O)c2ccccc2)CC1)N1CCN(CCCc2c[nH]c3ccccc23)CC1	< 4.30	Soluble	< 3.00	< 3.70	< 3.70	–	–	–
O=C(CN1CCN(C(=O)c2ccc(Br)cc2)CC1)N1CCN(CCCc2c[nH]c3ccc(F)cc23)CC1	4.40	Soluble	5.04	4.32	4.22	–	–	–
COc1cccc(C(=O)N2CCN(CC(=O)N3CCN(CCCc4c[nH]c5ccc(OC)cc45)CC3)CC2)c1	< 4.30	Soluble	< 3.00	< 3.70	< 3.70	–	–	–
O=C(CN1CCN(C(=O)c2cccc(Br)c2)CC1)N1CCN(CCCc2c[nH]c3ccccc23)CC1	4.64	Soluble	< 3.00	4.09	4.09	50%	inactive	Active
COc1ccc2[nH]cc(CCCN3CCN(C(=O)CN4CCN(C(=O)c5ccc(Br)cc5)CC4)CC3)c2c1	< 4.30	Soluble	< 3.00	3.82	4.09	–	–	–
COc1ccc2[nH]cc(CCCN3CCN(C(=O)CN4CCN(C(=O)c5ccc(Cl)cc5)CC4)CC3)c2c1	< 4.30	Soluble	< 3.00	3.80	3.93	–	–	–
COc1ccc2[nH]cc(CCCN3CCN(C(=O)CN4CCN(C(=O)c5ccc(F)cc5)CC4)CC3)c2c1	< 4.30	Soluble	< 3.00	< 3.70	< 3.70	–	–	–
COc1ccc(C(=O)N2CCN(CC(=O)N3CCN(CCCc4c[nH]c5ccccc45)CC3)CC2)cc1	4.60	Soluble	< 3.00	3.83	3.81	–	–	–
COc1ccc2[nH]cc(CCCN3CCN(C(=O)CN4CCN(C(=O)c5ccc(C)cc5)CC4)CC3)c2c1	< 4.30	Soluble	< 3.00	< 3.70	3.83	–	–	–
CN(C)CCCC1(c2ccc(F)cc2)OCc2cc(C#N)ccc21 (stereo not drawn) [CITALOPRAM]	4.13	–	–	< 3.70	< 3.70	–	–	–
COc1ccc2[nH]cc(CCCN3CCN(C(=O)CN4CCN(C(=O)c5cccc(F)c5)CC4)CC3)c2c1	4.43	Soluble	< 3.00	< 3.70	< 3.70	–	–	–
O=C(CN1CCN(C(=O)c2ccccc2F)CC1)N1CCN(CCCc2c[nH]c3ccccc23)CC1	4.69	Soluble	< 3.00	4.08	3.87	–	–	–
COc1ccc(C(=O)N2CCN(CC(=O)N3CCN(CCCc4c[nH]c5ccc(OC)cc45)CC3)CC2)cc1	< 4.30	Soluble	< 3.00	3.72	3.72	–	–	–
